Laboratory results from ChEMBL document CHEMBL5236585, “Design, synthesis and antifungal activities of novel triazole derivatives with selenium-containing hydrophobic side chains” (Bioorg Med Chem Lett, 2022).

Key:
Nakaseomyces glabratus = test: Antifungal activity against clinical isolate Candida glabrata assessed as inhibition of fungal growth by microdilution method; assay type: functional
Aspergillus fumigatus = test: Antifungal activity against Aspergillus fumigatus CGMCC 3.7795 assessed as inhibition of fungal growth by microdilution method; assay type: functional
Cryptococcus neoformans = test: Antifungal activity against Cryptococcus neoformans CGMCC 2.3161 assessed as inhibition of fungal growth by microdilution method; assay type: functional
Candida albicans [1] = test: Antifungal activity against Candida albicans ATCC SC5314 assessed as inhibition of fungal growth by microdilution method; assay type: functional
Pichia kudriavzevii = test: Antifungal activity against Candida krusei AS 2.1045 assessed as inhibition of fungal growth by microdilution method; assay type: functional
Candida parapsilosis = test: Antifungal activity against Candida parapsilosis 22019 assessed as inhibition of fungal growth by microdilution method; assay type: functional; settings: Lodderomyces parapsilosis
Candida tropicalis = test: Antifungal activity against Candida tropicalis CGMCC 2.3739 assessed as inhibition of fungal growth by microdilution method; assay type: functional
Candida albicans [2] = test: Antifungal activity against Candida albicans CPCC 400616 assessed as inhibition of fungal growth by microdilution method; assay type: functional
[3] = molecular target: T1, Lanosterol 14-alpha demethylase (Candida albicans (strain SC5314 / ATCC MYA-2876) (Yeast), UniProt P10613); test: Inhibition of CYP51 in Candida albicans SC5314 assessed as ergosterol level at 2 ug/ml by GC-MS analysis (reference value: 98.3 %); set-up: scale not given: the % may be the effect or the level left; settings: at 2 µg/mL
T1 sequence (P10613 whole entry): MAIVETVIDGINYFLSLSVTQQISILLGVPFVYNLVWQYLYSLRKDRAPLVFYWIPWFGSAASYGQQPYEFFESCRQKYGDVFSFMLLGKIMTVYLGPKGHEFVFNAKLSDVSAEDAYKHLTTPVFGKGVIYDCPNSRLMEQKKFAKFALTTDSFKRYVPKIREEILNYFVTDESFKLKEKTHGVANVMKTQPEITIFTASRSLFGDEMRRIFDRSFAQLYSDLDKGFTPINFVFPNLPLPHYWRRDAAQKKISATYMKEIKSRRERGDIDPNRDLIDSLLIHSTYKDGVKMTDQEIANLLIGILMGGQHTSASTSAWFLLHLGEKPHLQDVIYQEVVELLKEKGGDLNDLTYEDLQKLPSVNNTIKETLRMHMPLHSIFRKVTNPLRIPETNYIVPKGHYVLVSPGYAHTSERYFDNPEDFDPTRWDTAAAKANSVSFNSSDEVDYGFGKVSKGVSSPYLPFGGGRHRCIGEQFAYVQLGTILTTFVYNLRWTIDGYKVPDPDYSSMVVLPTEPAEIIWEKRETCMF

[4] = molecular target: T1, Lanosterol 14-alpha demethylase; test: Inhibition of CYP51 in Candida albicans SC5314 assessed as lanosterol level at 8 ug/ml by GC-MS analysis (reference value: 1.7 %); set-up: scale not given: the % may be the effect or the level left; settings: at 8 µg/mL
PC-3 = test: Cytotoxicity against human PC-3 cells assessed as inhibition of cell growth by MTT assay; assay type: functional, cell-based
MDA-MB-231 = test: Cytotoxicity against human MDA-MB-231 cells assessed as inhibition of cell growth by MTT assay; assay type: functional, cell-based
[5] = molecular target: T1, Lanosterol 14-alpha demethylase; test: Inhibition of CYP51 in Candida albicans SC5314 assessed as ergosterol level at 8 ug/ml by GC-MS analysis (reference value: 98.3 %); set-up: scale not given: the % may be the effect or the level left; settings: at 8 µg/mL
[6] = molecular target: T1, Lanosterol 14-alpha demethylase; test: Inhibition of CYP51 in Candida albicans SC5314 assessed as obtusifoliol level at 1 ug/ml by GC-MS analysis (reference value: 0 %); set-up: scale not given: the % may be the effect or the level left; settings: at 1 µg/mL
[7] = molecular target: T1, Lanosterol 14-alpha demethylase; test: Inhibition of CYP51 in Candida albicans SC5314 assessed as obtusifoliol level at 4 ug/ml by GC-MS analysis (reference value: 0 %); set-up: scale not given: the % may be the effect or the level left; settings: at 4 µg/mL
[8] = molecular target: T1, Lanosterol 14-alpha demethylase; test: Inhibition of CYP51 in Candida albicans SC5314 assessed as obtusifoliol level at 8 ug/ml by GC-MS analysis (reference value: 0 %); set-up: scale not given: the % may be the effect or the level left; settings: at 8 µg/mL
[9] = molecular target: T1, Lanosterol 14-alpha demethylase; test: Inhibition of CYP51 in Candida albicans SC5314 assessed as lanosterol level at 1 ug/ml by GC-MS analysis (reference value: 1.7 %); set-up: scale not given: the % may be the effect or the level left; settings: at 1 µg/mL
[10] = molecular target: T1, Lanosterol 14-alpha demethylase; test: Inhibition of CYP51 in Candida albicans SC5314 assessed as lanosterol level at 2 ug/ml by GC-MS analysis (reference value: 1.7 %); set-up: scale not given: the % may be the effect or the level left; settings: at 2 µg/mL
[11] = molecular target: T1, Lanosterol 14-alpha demethylase; test: Inhibition of CYP51 in Candida albicans SC5314 assessed as eburicol level at 8 ug/ml by GC-MS analysis (reference value: 0 %); set-up: scale not given: the % may be the effect or the level left; settings: at 8 µg/mL
HL-60 = test: Cytotoxicity against human HL-60 cells assessed as inhibition of cell growth by MTT assay; assay type: functional, cell-based
[12] = molecular target: T1, Lanosterol 14-alpha demethylase; test: Inhibition of CYP51 in Candida albicans SC5314 assessed as eburicol level at 2 ug/ml by GC-MS analysis (reference value: 0 %); set-up: scale not given: the % may be the effect or the level left; settings: at 2 µg/mL
[13] = molecular target: T1, Lanosterol 14-alpha demethylase; test: Inhibition of CYP51 in Candida albicans SC5314 assessed as ergosterol level at 1 ug/ml by GC-MS analysis (reference value: 98.3 %); set-up: scale not given: the % may be the effect or the level left; settings: at 1 µg/mL
[14] = molecular target: T1, Lanosterol 14-alpha demethylase; test: Inhibition of CYP51 in Candida albicans SC5314 assessed as ergosterol level at 4 ug/ml by GC-MS analysis (reference value: 98.3 %); set-up: scale not given: the % may be the effect or the level left; settings: at 4 µg/mL
[15] = molecular target: T1, Lanosterol 14-alpha demethylase; test: Inhibition of CYP51 in Candida albicans SC5314 assessed as eburicol level at 1 ug/ml by GC-MS analysis (reference value: 0 %); set-up: scale not given: the % may be the effect or the level left; settings: at 1 µg/mL
[16] = molecular target: T1, Lanosterol 14-alpha demethylase; test: Inhibition of CYP51 in Candida albicans SC5314 assessed as lanosterol level at 4 ug/ml by GC-MS analysis (reference value: 1.7 %); set-up: scale not given: the % may be the effect or the level left; settings: at 4 µg/mL
[17] = molecular target: T1, Lanosterol 14-alpha demethylase; test: Inhibition of CYP51 in Candida albicans SC5314 assessed as obtusifoliol level at 2 ug/ml by GC-MS analysis (reference value: 0 %); set-up: scale not given: the % may be the effect or the level left; settings: at 2 µg/mL
[18] = molecular target: T1, Lanosterol 14-alpha demethylase; test: Inhibition of CYP51 in Candida albicans SC5314 assessed as eburicol level at 4 ug/ml by GC-MS analysis (reference value: 0 %); set-up: scale not given: the % may be the effect or the level left; settings: at 4 µg/mL

Compound | MIC (Nakaseomyces glabratus) [µg/mL] | MIC (Aspergillus fumigatus) [µg/mL] | MIC (Cryptococcus neoformans) [µg/mL] | MIC (Candida albicans [1]) [µg/mL] | MIC (Pichia kudriavzevii) [µg/mL] | MIC (Candida parapsilosis) [µg/mL] | MIC (Candida tropicalis) [µg/mL] | MIC (Candida albicans [2]) [µg/mL] | other results
OC(C[Se]Cc1ccccc1Cl)(Cn1cncn1)c1ccc(F)cc1F (centres undefined) | 0.5 | 2 | 0.25 | 0.02 | 0.125 | 0.125 | 0.25 | 0.125 | –
OC(C[Se]c1ccc(F)cc1)(Cn1cncn1)c1ccc(F)cc1F (centres undefined) | 4 | 4 | 0.25 | 0.125 | 2 | 0.125 | 0.5 | 0.25 | –
Cc1cccc([Se]CC(O)(Cn2cncn2)c2ccc(F)cc2F)c1 (centres undefined) | 2 | 8 | 0.5 | 0.125 | 0.5 | 0.5 | 1 | 0.25 | –
Cc1cccc(C[Se]CC(O)(Cn2cncn2)c2ccc(F)cc2F)c1 (centres undefined) | 4 | 4 | 1 | 0.06 | 2 | 0.25 | 1 | 0.125 | –
Cc1ccccc1[Se]CC(O)(Cn1cncn1)c1ccc(F)cc1F (centres undefined) | 0.5 | 16 | 0.25 | 0.03 | 0.5 | 0.125 | 1 | 1 | –

Second part, led by results:

MIC (Nakaseomyces glabratus) [µg/mL] | MIC (Aspergillus fumigatus) [µg/mL] | MIC (Cryptococcus neoformans) [µg/mL] | MIC (Candida albicans [1]) [µg/mL] | MIC (Pichia kudriavzevii) [µg/mL] | MIC (Candida parapsilosis) [µg/mL] | MIC (Candida tropicalis) [µg/mL] | MIC (Candida albicans [2]) [µg/mL] | Compound | other results
1 | 4 | 0.25 | 0.5 | 0.125 | 0.25 | 1 | 0.06 | Cc1cccc(C)c1[Se]CC(O)(Cn1cncn1)c1ccc(F)cc1F (centres undefined) | –
4 | 8 | 0.03 | 0.03 | 2 | 0.25 | 0.06 | 0.06 | Cc1cc(C)cc([Se]CC(O)(Cn2cncn2)c2ccc(F)cc2F)c1 (centres undefined) | –
0.5 | 16 | 0.03 | 0.02 | 0.5 | 0.125 | 0.125 | 0.25 | COc1ccc([Se]CC(O)(Cn2cncn2)c2ccc(F)cc2F)cc1 (centres undefined) | Activity [3]: 3.6%; Activity [4]: 19.3%; IC50 (PC-3): 26.7 µM; IC50 (MDA-MB-231): 18.8 µM; Activity [5]: 0.38%; Activity [6]: 10.1%; Activity [7]: 11.2%; Activity [8]: 11.8%; Activity [9]: 18.4%; Activity [10]: 18.2%; Activity [11]: 65.7%; IC50 (HL-60): 12.1 µM; Activity [12]: 64.7%; Activity [13]: 4.3%; Activity [14]: 1.4%; Activity [15]: 64.3%; Activity [16]: 19.1%; Activity [17]: 10.8%; Activity [18]: 64.5%
1 | 4 | 0.5 | 0.5 | 1 | 0.25 | 2 | 0.25 | CCc1ccccc1[Se]CC(O)(Cn1cncn1)c1ccc(F)cc1F (centres undefined) | –
4 | 4 | 1 | 0.5 | 2 | 0.5 | 2 | 1 | CCc1ccc([Se]CC(O)(Cn2cncn2)c2ccc(F)cc2F)cc1 (centres undefined) | –
